Results taken from paper PMC10584170, “Machine learning-based phenotypic imaging to characterise the targetable biology of Plasmodium falciparum male gametocytes for the development of transmission-blocking antimalarials” (PLOS Pathogens, 2023).

Columns and labels:
[1] = system: P. falciparum female gametocytes; assay: P. falciparum Dual Gamete Formation Assay (PfDGFA), female readout (Pfs25-positive female gametes); assay type: cell-based, Plasmodium falciparum NF54; conditions: for % inhibition female (individual replicates) R1: replicate R1; for % inhibition female (individual replicates) R3: replicate R3; for % inhibition female (individual replicates) R4: replicate R4; for Average inhibition female (%): average of replicates
In short: (§1)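 First, day-14 P. falciparum NF54 gametocytes receive compound for 24 h at 37°C in 1% O2/3% CO2. Next, ookinete medium with Cy3 anti-Pfs25 triggers gametogenesis at 28°C and male exflagellation is imaged. Finally, after 24 h in the dark, Cy3-labelled females are imaged.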

[2] = system: P. falciparum male gametocytes; assay: P. falciparum Dual Gamete Formation Assay (PfDGFA), male readout (exflagellation); assay type: cell-based, Plasmodium falciparum NF54; conditions: for % inhibition male (individual replicates) R1: replicate R1; for % inhibition male (individual replicates) R3: replicate R3; for % inhibition male (individual replicates) R4: replicate R4; for Average inhibition male (%): average of replicates; for Activity: hit = >50% inhibition in male or female readout in at least 3 replicates, 0 = no class assigned
In short: as §1

[3] = PfDGFA at 2µM, 24h preincubation with gametocytes prior to induction of gametogenesis
[4] = PfDGFA at 2µM, 24h preincubation
[5] = 2µM, 24h preincubation with gametocytes prior to induction of gametogenesis
[6] = 2µM, 24h preincubation, hits selected on >50% inhibition in the female readout across replicates
[7] = 2µM, 24h preincubation, hits selected on >50% inhibition in the male readout across replicates
[8] = 2µM, 24h preincubation with gametocytes
[9] = 2µM, 24h preincubation, number of replicates with >50% inhibition in the female readout
[10] = 2µM, 24h preincubation, number of replicates with >50% inhibition in the male readout
[11] = PfDGFA at 2µM, 24h preincubation with gametocytes

Row | Compound | % inhibition female (individual replicates) R1 [1, 3] [%] | % inhibition female (individual replicates) R3 [1, 3] [%] | % inhibition female (individual replicates) R4 [1, 3] [%] | Average inhibition female (%) [1, 4] [%] | % inhibition male (individual replicates) R1 [2, 3] [%] | % inhibition male (individual replicates) R3 [2, 3] [%] | % inhibition male (individual replicates) R4 [2, 3] [%] | Average inhibition male (%) [2, 4] [%] | Average inhibition female (%) [1, 5] [%] | % inhibition female (individual replicates) R1 [1, 5] [%] | % inhibition female (individual replicates) R3 [1, 5] [%] | % inhibition female (individual replicates) R4 [1, 5] [%] | Average inhibition male (%) [2, 5] [%] | % inhibition male (individual replicates) R1 [2, 5] [%] | % inhibition male (individual replicates) R3 [2, 5] [%] | % inhibition male (individual replicates) R4 [2, 5] [%] | also measured
1 | Cl.Nc1nc(N)c2c(ccc3c2cnn3S(=O)(=O)N2CCCC2)n1 [TCMDC-137852] | 0.4 | -21.8 | -7.9 | -7.0 | 28.2 | -12.1 | -13.1 | 5.0 |  |  |  |  |  |  |  |  | 
2 | Cl.Nc1nc(N)c2c(ccc3nn(S(=O)(=O)N4CCCC4)cc32)n1 [TCMDC-137854] | -6.1 | 12.6 | -10.2 | -1.3 | 39.1 | 32.8 | 30.1 | 33.2 |  |  |  |  |  |  |  |  | 
3 | CCCn1cc2c(ccc3nc(N)nc(N)c32)n1 [TCMDC-137858] | 9.1 | -22.2 | 2.7 | -1.2 | 0.8 | -0.8 | -25.8 | 1.4 |  |  |  |  |  |  |  |  | 
4 | CC(C)n1cc2c(ccc3nc(N)nc(N)c32)n1 [TCMDC-137865] | 4.2 | -9.2 | -1.6 | -0.07 | 12.4 | -22.8 | -29.8 | -10.2 |  |  |  |  |  |  |  |  | 
5 | Nc1nc(N)c2c(Cl)c(N3CCOCC3)ccc2n1 [TCMDC-137868] |  |  |  |  |  |  |  |  | 8.8 | 9.4 | -3.6 | -2.4 | -14.2 | 5.7 | -9.7 | -52.5 | HitlevelF [1, 6]: 0; HitlevelM [2, 7]: 0; Activity [2, 4]: 0
6 | Cl.Nc1nc(N)c2c(ccc3c2ccn3C2CCCCC2)n1 [TCMDC-137871] |  |  |  |  |  |  |  |  | 10.6 | -11.4 | 35.4 | 4.9 | 11.6 | 19.6 | 1.6 | -3.1 | HitlevelF [1, 6]: 0; HitlevelM [2, 7]: 0; Activity [2, 4]: 0
7 | Cc1ccc2c(Cc3cnc(N)nc3N)cc(C)c(N)c2n1.Cl [TCMDC-137878] | 1.9 | 4.6 | 2.9 | -0.2 | 10.8 |  | 0.8 | 15.3 |  |  |  |  |  |  |  |  | 
8 | Cl.N=C(N)NN=Cc1c2ccc(Cl)cc2c(Cl)c2ccc(Cl)cc12 [TCMDC-137884] |  |  |  |  |  |  |  |  |  |  |  |  |  |  |  |  | Average inhibition female (%) [1, 8]: 57.1%; % inhibition female (individual replicates) R1 [1, 8]: 33.5%; % inhibition female (individual replicates) R3 [1, 8]: 56.7%; % inhibition female (individual replicates) R4 [1, 8]: 75.9%; Average inhibition male (%) [2, 8]: 92.6%; % inhibition male (individual replicates) R1 [2, 8]: 97.0%; % inhibition male (individual replicates) R3 [2, 8]: 80.2%; % inhibition male (individual replicates) R4 [2, 8]: 97.6%
9 | O=C(NCc1ccccc1[S+]([O-])c1ccccc1CO)C(F)(F)F (centres unmarked) [TCMDC-137886] | 9.6 | -29.2 | 19.1 | 3.3 | 18.6 | -28.2 | -31.1 | -8.4 |  |  |  |  |  |  |  |  | 
10 | Cl.Nc1ncc(Cc2cc(Cl)c(N)c3ncccc23)c(N)n1 [TCMDC-137889] | 12.6 | -23.8 | 5.5 | -0.8 | 6.1 | -28.8 | -13.1 | -7.9 |  |  |  |  |  |  |  |  | 
11 | Cl.c1ccc2c(NCCCCCCCNc3ccnc4ccccc34)ccnc2c1 [TCMDC-137897] |  |  |  |  |  |  |  |  | 26.1 | 24.7 | -5.3 | 43.2 | 23.4 | 24.9 | -14.5 | 54.2 | HitlevelF [1, 9]: 0; HitlevelM [2, 10]: 1
12 | Cl.c1ccc2c(c1)cc(CNCCCN1CCN(CCCNCc3cc4ccccc4c4ccccc34)CC1)c1ccccc12 [TCMDC-137914] |  |  |  |  |  |  |  |  | 20.8 | 24.6 | 15.0 | 14.7 | 5.2 | 10.5 | -10.9 | 23.6 | HitlevelF [1, 9]: 0; HitlevelM [2, 10]: 0
13 | CCc1nc(N)nc(N)c1CCCOc1ccccc1Cl.Cl [TCMDC-137928] |  |  |  |  |  |  |  |  | 14.6 | 20.2 | 26.6 | 2.3 | -0.378 | 19.6 | 1.0 | -29.1 | HitlevelF [1, 6]: 0; HitlevelM [2, 7]: 0; Activity [2, 4]: 0
14 | CCOc1cc2ccccc2cc1CNCCCCCCNCc1cc2ccccc2cc1OCC.CS(=O)(=O)O [TCMDC-137940] |  |  |  |  |  |  |  |  | 10.1 | 11.4 | 8.9 | 5.4 | -10.2 | -8.8 | -9.1 | -15.1 | HitlevelF [1, 6]: 0; HitlevelM [2, 7]: 0; Activity [2, 4]: 0
15 | CCOc1c(CNCCCCCCNCc2ccc3ccccc3c2OCC)ccc2ccccc12.CS(=O)(=O)O [TCMDC-137942] |  |  |  |  |  |  |  |  |  |  |  |  |  |  |  |  | Average inhibition female (%) [1, 11]: 35.4%; % inhibition female (individual replicates) R1 [1, 11]: 30.1%; % inhibition female (individual replicates) R3 [1, 11]: 19.1%; % inhibition female (individual replicates) R4 [1, 11]: 50.5%; HitlevelF ([1]; number of replicates with >50% inhibition in the female readout, 2µM): 1; Average inhibition male (%) [2, 11]: 82.7%; % inhibition male (individual replicates) R1 [2, 11]: 76.8%; % inhibition male (individual replicates) R3 [2, 11]: 64.7%; % inhibition male (individual replicates) R4 [2, 11]: 98.9%; HitlevelM ([2]; number of replicates with >50% inhibition in the male readout, 2µM): 4
